According to US5856175A, “Device for detecting microorganisms” (priority 1996, dated 1999):
Like-named read-outs stand apart in the source and are kept apart here.

Key:
Type in all cases: cell-based
Escherichia coli 29194 = assay: Antimicrobial susceptibility pattern using silicone-emulsion CO2 sensors (Table 4)
Description: (§1) Microtiter plates (96 flat bottom wells) containing 0.05% Xylenol blue silicone-emulsion sensors on the bottom were filled with 100 microliters of microbial growth medium containing no antibiotics (growth control wells) and nine different classes of antibiotics. Final concentrations of the antibiotics were achieved after addition of 100 microliters of inoculum (final inoculum of 5×10^7 CFU/ml) of the representative microorganisms. The concentrations of antibiotics used represent those used in determining if the test organism is sensitive, intermediate, or resistant to a particular antibiotic.
(§2) After inoculating the microtiter tray, it was sealed with a pressure sensitive plastic plate sealer and initial readings were taken with a reflectance reader. The plate was then placed into a 37° C. incubator. After four hours incubation, the plate was removed and final reflectance readings were taken.
(§3) The results in Table 4 show a pattern of growth, no growth, or intermediate growth of the four test organisms with the nine classes of antibiotics. This is indicative of the type of susceptibility of the organisms to the antibiotics. The organisms tested vary in their susceptibility pattern because of differences in their physiological makeup.

[1] = test system: Pseudomonas aeruginosa 27853; assay: as above
Description: as §1, §2, §3

[2] = test system: Staphylococcus aureus 25923; assay: as above
Description: as §1, §2, §3

[3] = test system: Streptococcus faecalis 29212; assay: as above
Description: as §1, §2, §3

[4] = test system: Alcaligenes odorans 33585; assay: Pattern of inhibition using silicone-emulsion CO2 sensors (Table 3); conditions: 4 h, 37° C., 5×10^7 CFU/ml
Description: (§4) Microbial identification using the described CO2 sensors can also be based on the principle of growth inhibition. This system differs from the classical biochemical identification systems, as identification is based on selective growth inhibition by inhibitory agents, such as dyes, antibiotics, and other substances. Once again, the production of CO2 is the measure of growth. The growth pattern produced in the presence of these inhibitory agents identifies the species of the test microorganism. The amount of growth is compared with a growth control well that contains no inhibitor. A profile is derived using a two-stage quadratic discriminate analysis based on the results derived from the battery of inhibitory agents.
(§5) Microtiter plates (96 flat bottom wells) containing 0.05% xylenol blue silicone-emulsion sensors were filled with 100 microliters of microbial growth medium containing no inhibitors (growth control wells) and eighteen different dyes, antibiotics, and other inhibitory substances. Final concentrations of the inhibitors were achieved after addition of 100 microliters of inoculum (final inoculum of 5×10^7 CFU/ml) of the representative microorganisms.
as §2

Escherichia coli 33582 = assay: as above; conditions: 4 h, 37° C., 5×10^7 CFU/ml
Description: as §4, §5, §2

Proteus mirabilis 33583 = assay: as above; conditions: 4 h, 37° C., 5×10^7 CFU/ml
Description: as §4, §5, §2

[5] = test system: Pseudomonas aeruginosa 33584; assay: as above; conditions: 4 h, 37° C., 5×10^7 CFU/ml
Description: as §4, §5, §2

[6] = Escherichia coli, 29194, 4 h, read-out: Percent growth as compared to a growth control without antibiotics
[7] = Pseudomonas aeruginosa, 27853, 4 h, read-out: Percent growth as compared to a growth control without antibiotics
[8] = Staphylococcus aureus, 25923, 4 h, read-out: Percent growth as compared to a growth control without antibiotics
[9] = Enterococcus faecalis, 29212, 4 h, read-out: Percent growth as compared to a growth control without antibiotics
[10] = 0.2 units, 4 h, 37° C., 5×10^7 CFU/ml

Compound: CCn1cc(C(=O)O)c(=O)c2ccc(C)nc21 [Nalidixic acid]
- activity at 15 µg/mL (Escherichia coli 29194; [6]): 18%
- activity at 15 µg/mL [1, 7]: 109%
- activity at 15 µg/mL [2, 8]: 80%
- activity at 15 µg/mL [3, 9]: 116%

Compound: O=C1CN(/N=C/c2ccc([N+](=O)[O-])o2)C(=O)N1 [Nitrofurantoin]
- activity at 15 µg/mL (Escherichia coli 29194; Escherichia coli, 29194, 15 mcg (per milliliter), 4 h, 37° C., 5×10^7 CFU/ml, read-out: Percent growth as compared to a growth control without antibiotics): 14%
- activity at 15 µg/mL ([1]; Pseudomonas aeruginosa, 27853, 15 mcg (per milliliter), 4 h, 37° C., 5×10^7 CFU/ml, read-out: Percent growth as compared to a growth control without antibiotics): 112%
- activity at 15 µg/mL ([2]; Staphylococcus aureus, 25923, 15 mcg (per milliliter), 4 h, 37° C., 5×10^7 CFU/ml, read-out: Percent growth as compared to a growth control without antibiotics): 33%
- activity at 15 µg/mL ([3]; Enterococcus faecalis, 29212, 15 mcg (per milliliter), 4 h, 37° C., 5×10^7 CFU/ml, read-out: Percent growth as compared to a growth control without antibiotics): 110%

Compound: CO[C@@H]1[C@@H](OC(N)=O)[C@@H](O)[C@H](Oc2ccc3c(O)c(NC(=O)c4ccc(O)c(CC=C(C)C)c4)c(=O)oc3c2C)OC1(C)C [Novobiocin]
- Percent growth as compared to a growth control without antibiotics ([4]; 48 mcg): 16%
- Percent growth as compared to a growth control without antibiotics (Escherichia coli 33582; 48 mcg): 9%
- Percent growth as compared to a growth control without antibiotics (Proteus mirabilis 33583; 48 mcg): 48%
- Percent growth as compared to a growth control without antibiotics ([5]; 48 mcg): 85%

Compound: [O-][n+]1ccccc1SSc1cccc[n+]1[O-] [Omadine disulfide]
- Percent growth as compared to a growth control without antibiotics ([4]; 5.5 mcg): 36%
- Percent growth as compared to a growth control without antibiotics (Escherichia coli 33582; 5.5 mcg): 10%
- Percent growth as compared to a growth control without antibiotics (Proteus mirabilis 33583; 5.5 mcg): 71%
- Percent growth as compared to a growth control without antibiotics ([5]; 5.5 mcg): 94%

Compound: CC1(C)S[C@@H]2[C@H](NC(=O)Cc3ccccc3)C(=O)N2[C@H]1C(=O)O [Penicillin G]
- Percent growth as compared to a growth control without antibiotics (Escherichia coli 29194; [10]): 103%
- Percent growth as compared to a growth control without antibiotics [1, 10]: 149%
- Percent growth as compared to a growth control without antibiotics [2, 10]: 45%
- Percent growth as compared to a growth control without antibiotics [3, 10]: 108%

Compound: [N-]=[N+]=[N-] [Sodium azide]
- Percent growth as compared to a growth control without antibiotics ([4]; 75 mcg): 47%
- Percent growth as compared to a growth control without antibiotics (Escherichia coli 33582; 75 mcg): 6%
- Percent growth as compared to a growth control without antibiotics (Proteus mirabilis 33583; 75 mcg): 35%
- Percent growth as compared to a growth control without antibiotics ([5]; 75 mcg): 47%

Compound: CN(C)C1C(=O)C(C(N)=O)=C(O)C2(O)C(=O)C3=C(O)c4c(O)cccc4C(C)(O)C3CC12 (centres unmarked) [Tetracycline]
- activity at 0.5 µg/mL (Escherichia coli 29194; [6]): 76%
- activity at 0.5 µg/mL [1, 7]: 120%
- activity at 0.5 µg/mL [2, 8]: 15%
- activity at 0.5 µg/mL [3, 9]: 109%

Compound: CC(=O)[O-].[Tl+] [Thallous acetate]
- Percent growth as compared to a growth control without antibiotics ([4]; 150 mcg): 47%
- Percent growth as compared to a growth control without antibiotics (Escherichia coli 33582; 150 mcg): 40%
- Percent growth as compared to a growth control without antibiotics (Proteus mirabilis 33583; 150 mcg): 68%
- Percent growth as compared to a growth control without antibiotics ([5]; 150 mcg): 34%

Compound: Acriflavine
- Percent growth as compared to a growth control without antibiotics ([4]; 30 mcg): 55%
- Percent growth as compared to a growth control without antibiotics (Escherichia coli 33582; 30 mcg): 5%
- Percent growth as compared to a growth control without antibiotics (Proteus mirabilis 33583; 30 mcg): 68%
- Percent growth as compared to a growth control without antibiotics ([5]; 30 mcg): 84%

Compound: Brilliant green
- Percent growth as compared to a growth control without antibiotics ([4]; 3 mcg): 37%
- Percent growth as compared to a growth control without antibiotics (Escherichia coli 33582; 3 mcg): 104%
- Percent growth as compared to a growth control without antibiotics (Proteus mirabilis 33583; 3 mcg): 84%
- Percent growth as compared to a growth control without antibiotics ([5]; 3 mcg): 101%

Compound: Colistin
- Percent growth as compared to a growth control without antibiotics ([4]; 13 mcg): -44%
- Percent growth as compared to a growth control without antibiotics (Escherichia coli 33582; 13 mcg): 3%
- Percent growth as compared to a growth control without antibiotics (Proteus mirabilis 33583; 13 mcg): 114%
- Percent growth as compared to a growth control without antibiotics ([5]; 13 mcg): 34%
